Data: patent US10561703B2, “Method of modulating sex hormone levels using a sex hormone secretion modulator” (GEMVAX & KAEL CO., LTD., priority 2013, dated 2020)

Tested on: LH
Test: LH level in blood (serum CLIA) after repeated sc PEP-1
Format: in vivo, SD rats
Protocol: PEP-1 (peptide of SEQ ID NO: 1), lyophilized white powder, obtained according to the method mentioned in example 1 was dissolved in 0.9% of saline, considering the correction factor of PEP-1 (purity: 94.13%, content: 92.36%, correction factor: 1.15). 50 mg/mL stock solution was further diluted into 20 mg/mL, 2 mg/mL, and 1 mg/mL with 0.9% saline, and stored at 4° C. for a week until the use.
The purpose of this example is to confirm the change of sexual hormones in blood from SD rats with 7 days repeated daily administration of SEQ ID NO: 1 peptide, PEP-1. This experiment followed the Ethics Regulation of Animal Test by KAMSI Inc. (Korea Animal Medical Science Institute). In addition, this experiment, Non-GLP experiment, referred to the MFDS (Ministry of Food and Drug Safety) notification; Agent 2013-40 (5th April 2013), Principles of Good Laboratory Practice (1997).
SPF Rats (Crlj:CD(SD)) were purchased from ORIENTBio Inc. (Mokdong-ri, Buk-myeon, Gapyeong-gun, Gyeonggi-do, Republic of Korea). 75 male (6.5 weeks old and 190˜210 g) and 75 female (6.5 weeks old and 160˜180 g) rats were monitored for 4 days, and 64 of male and female rats (each) were selected for the experiment. Raising condition is as follows; 23±3° C. of temperature, […] of relative humidity, 10˜20 times/hr of number of air changes, 12 hours (8 a.m.˜8 p.m.) of lighting with 150˜300 Lux of intensity.
64 male and female […] (mentioned above) were divided into 8 groups. Administration regimen, for example, drugs, routes, dosages, and volumes were as follows:
The detailed administration regimen is as follows; once a day, twice a day and twice a week in each experimental group. Injection initiated at 10 a.m. every day, and each rat was injected at one minute intervals. Rats in Group 9, 10, 13 and 14 were injected twice a week. Administration of high dose test agent preceded that of low dose. The volume of injection was calculated using recently measured weight of rats, and it was 5 mL/kg. Subcutaneous injection was performed as follows; assistant tilted the back of rat upward, and experimenter sterilized the back of rat with 70% alcohol, followed by subcutaneous injection of test agent with 26 G syringe.
1.4 mL of blood sample (0.7 mL of serum) was collected after measurement of weight (Day 0). Next day (1 Day), 1.4 mL of blood sample (0.7 mL of serum) was collected twice after injection of test agent (4 hrs and 8 hrs after administration of test agent). For next 6 days (Day 2˜Day 7), 1.4 mL of blood was extracted once everyday (4 hours after injection of test agent). Dose and volume of test agent of each group followed the Table 3, and injection time zone was same every day. Blood was extracted from the jugular vein, and left at room temperature for 30 minutes. Serum was separated using centrifugation (10,000 rpm for 5 minutes), and stored at −70±5° C. in Deep freezer until the use. Blood extraction from each subject was done in the same time zone every day.
A CLIA (Chemi-Luminescence Immune Assay) Kit was used to analyze Testosterone, Estradiol E2, FSH (Follicle stimulating hormone), and LH (Luteinizing hormone). Analysis was completed within 48 hrs after blood extraction (Laboratory Medicine Department, Chung-Ang University Hospital), and detailed method is as follows; One-way ANOVA was used to verify the comparison between the vehicle and PEP-1, and between different doses of PEP-1. For further analysis, Duncan test was used as parametric test and Dunnett's test as non-parametric test. p<0.05 represents the statistical significance, and all statistical analysis was carried out with SPSS 10.1.
LH was analyzed using the samples prepared from example 2. 50 μL of serum was used for analysis. Fundamentals of analysis is Two-site sandwich immunoassay based on direct chemi-luminescent. As mentioned in example 2, CLIA (Chemi-luminescence immune assay) Kit was used, following the manufacture's protocol.

EARPALLTSRLRFIPK (listed as Homo sapiens) [PEP-1, hormone secretion modulator / GnRH analog]
LH level in blood (G3 Male 5 mg/kg sc 1/day x7, 7 days): 0.13 mIU/mL | LH level in blood (G4 Female 5 mg/kg sc 1/day x7, 4 hr): 0.16 mIU/mL | LH level in blood (G4 Female 5 mg/kg sc 1/day x7, 8 hr): 0.24 mIU/mL | LH level in blood (G4 Female 5 mg/kg sc 1/day x7, 2 days): 0.19 mIU/mL | LH level in blood (G4 Female 5 mg/kg sc 1/day x7, 3 days): 0.13 mIU/mL | LH level in blood (G4 Female 5 mg/kg sc 1/day x7, 4 days): 0.13 mIU/mL | LH level in blood (G4 Female 5 mg/kg sc 1/day x7, 5 days): 0.14 mIU/mL | LH level in blood (G4 Female 5 mg/kg sc 1/day x7, 6 days): 0.14 mIU/mL | LH level in blood (G4 Female 5 mg/kg sc 1/day x7, 7 days): 0.16 mIU/mL | LH level in blood (G4 Female 5 mg/kg sc 1/day x7, pre): 0.12 mIU/mL | LH level in blood (G6 Female 10 mg/kg sc 1/day x7, 4 hr): 0.41 mIU/mL | LH level in blood (G6 Female 10 mg/kg sc 1/day x7, 8 hr): 0.26 mIU/mL | LH level in blood (G6 Female 10 mg/kg sc 1/day x7, 2 days): 0.22 mIU/mL | LH level in blood (G6 Female 10 mg/kg sc 1/day x7, 3 days): 0.19 mIU/mL | LH level in blood (G6 Female 10 mg/kg sc 1/day x7, 4 days): 0.15 mIU/mL | LH level in blood (G6 Female 10 mg/kg sc 1/day x7, 5 days): 0.15 mIU/mL | LH level in blood (G6 Female 10 mg/kg sc 1/day x7, 6 days): 0.17 mIU/mL | LH level in blood (G6 Female 10 mg/kg sc 1/day x7, 7 days): 0.16 mIU/mL | LH level in blood (G6 Female 10 mg/kg sc 1/day x7, pre): 0.12 mIU/mL | LH level in blood (G8 Female 10 mg/kg sc 2/day x4, 4 hr): 0.22 mIU/mL | LH level in blood (G8 Female 10 mg/kg sc 2/day x4, 8 hr): 0.15 mIU/mL | LH level in blood (G8 Female 10 mg/kg sc 2/day x4, 2 days): 0.17 mIU/mL | LH level in blood (G8 Female 10 mg/kg sc 2/day x4, 3 days): 0.28 mIU/mL | LH level in blood (G8 Female 10 mg/kg sc 2/day x4, 4 days): 0.13 mIU/mL | LH level in blood (G8 Female 10 mg/kg sc 2/day x4, 5 days): 0.23 mIU/mL | LH level in blood (G8 Female 10 mg/kg sc 2/day x4, 6 days): 0.15 mIU/mL | LH level in blood (G8 Female 10 mg/kg sc 2/day x4, 7 days): 0.28 mIU/mL | LH level in blood (G8 Female 10 mg/kg sc 2/day x4, pre): 0.13 mIU/mL | LH level in blood (G9 Male 10 mg/kg sc 2/week x2 (days 1,7), 4 hr): 0.62 mIU/mL | LH level in blood (G9 Male 10 mg/kg sc 2/week x2 (days 1,7), 8 hr): 0.14 mIU/mL | LH level in blood (G9 Male 10 mg/kg sc 2/week x2 (days 1,7), 2 days): 0.12 mIU/mL | LH level in blood (G9 Male 10 mg/kg sc 2/week x2 (days 1,7), 3 days): 0.12 mIU/mL | LH level in blood (G9 Male 10 mg/kg sc 2/week x2 (days 1,7), 4 days): 0.13 mIU/mL | LH level in blood (G9 Male 10 mg/kg sc 2/week x2 (days 1,7), 5 days): 0.14 mIU/mL | LH level in blood (G9 Male 10 mg/kg sc 2/week x2 (days 1,7), 6 days): 0.11 mIU/mL | LH level in blood (G9 Male 10 mg/kg sc 2/week x2 (days 1,7), 7 days): 0.67 mIU/mL | LH level in blood (G9 Male 10 mg/kg sc 2/week x2 (days 1,7), pre): 0.12 mIU/mL | LH level in blood (G10 Female 10 mg/kg sc 2/week x2 (days 1,7), 4 hr): 0.25 mIU/mL | LH level in blood (G10 Female 10 mg/kg sc 2/week x2 (days 1,7), 8 hr): 0.23 mIU/mL | LH level in blood (G10 Female 10 mg/kg sc 2/week x2 (days 1,7), 2 days): 0.17 mIU/mL | LH level in blood (G10 Female 10 mg/kg sc 2/week x2 (days 1,7), 3 days): 0.14 mIU/mL | LH level in blood (G10 Female 10 mg/kg sc 2/week x2 (days 1,7), 4 days): 0.13 mIU/mL | LH level in blood (G10 Female 10 mg/kg sc 2/week x2 (days 1,7), 5 days): 0.15 mIU/mL | LH level in blood (G10 Female 10 mg/kg sc 2/week x2 (days 1,7), 6 days): 0.12 mIU/mL | LH level in blood (G10 Female 10 mg/kg sc 2/week x2 (days 1,7), 7 days): 0.26 mIU/mL | LH level in blood (G10 Female 10 mg/kg sc 2/week x2 (days 1,7), pre): 0.25 mIU/mL | LH level in blood (G11 Male 100 mg/kg sc 1/day x7, 4 hr): 1.16 mIU/mL | LH level in blood (G11 Male 100 mg/kg sc 1/day x7, 8 hr): 0.18 mIU/mL | LH level in blood (G11 Male 100 mg/kg sc 1/day x7, 2 days): 0.28 mIU/mL | LH level in blood (G11 Male 100 mg/kg sc 1/day x7, 3 days): 0.23 mIU/mL | LH level in blood (G11 Male 100 mg/kg sc 1/day x7, 4 days): 0.18 mIU/mL
